According to publication PMC4370192, “Discovery of Specific Inhibitors for Intestinal E. coli β-Glucuronidase through In Silico Virtual Screening” (The Scientific World Journal, 2015):

Assays:
[1] = molecular target: T1, E. coli β-glucuronidase (eβG) (Escherichia coli, UniProt P05804); assay: In vitro βG-activity assay (pNPG hydrolysis), eβG; format: biochemical; details: 50 μM compound, pH 7.3, percent of activity vs untreated control
T1 construct: histidine tag (N); made in house; host or cells: E. coli BL21 (DE3)
T1 sequence (P05804 whole entry): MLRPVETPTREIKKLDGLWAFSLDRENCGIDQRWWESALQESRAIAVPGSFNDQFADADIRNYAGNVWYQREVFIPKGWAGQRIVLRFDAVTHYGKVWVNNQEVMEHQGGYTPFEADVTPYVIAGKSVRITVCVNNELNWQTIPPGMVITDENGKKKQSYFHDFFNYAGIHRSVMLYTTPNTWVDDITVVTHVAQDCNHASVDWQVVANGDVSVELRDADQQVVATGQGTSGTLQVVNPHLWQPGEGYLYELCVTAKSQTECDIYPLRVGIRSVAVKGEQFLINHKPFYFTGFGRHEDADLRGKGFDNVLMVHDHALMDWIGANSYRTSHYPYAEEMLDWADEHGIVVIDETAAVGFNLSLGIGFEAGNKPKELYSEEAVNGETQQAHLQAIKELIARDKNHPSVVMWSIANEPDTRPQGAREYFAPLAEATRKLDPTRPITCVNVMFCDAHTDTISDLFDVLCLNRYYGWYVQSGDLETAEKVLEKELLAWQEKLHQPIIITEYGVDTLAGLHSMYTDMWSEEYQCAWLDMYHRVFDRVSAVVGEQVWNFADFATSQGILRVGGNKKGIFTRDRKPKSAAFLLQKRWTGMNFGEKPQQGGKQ
Description: (§1) Plasmid pRESTB containing βG gene and a histidine tag at the N-terminus was constructed as described. Recombinant βG (human and E. coli) was produced by isopropyl β-D-thiogalactopyranoside (IPTG) induction of BL21 (DE3) bacteria. βG was purified from bacterial supernatants by affinity chromatography on nickels Sepharose 6 Fast Flow (GE Healthcare). The column was washed by phosphate-buffered saline (PBS), with 50 mM imidazole, and βG was eluted by PBS with 250 mM imidazole. The purified βG was desalted on a Sephadex G-25 column equilibrated with PBS and stored at −80°C.
The candidate compounds were purchased from SPECS (The Netherlands). Each candidate was provided as a solid power and dissolved in 100% DMSO (Sigma-Aldrich) to 10 mM as stock. Candidates were screened for their inhibition specificity of eβG versus hβG, which were conducted at pH 7.3 or pH 5.4, in triplicate, respectively. 40 μL purified βG was treated with 10 μL compound solution at 37°C for 30 min and sequentially incubated with 50 μL of pNPG (Sigma-Aldrich) at 37°C for 30 min. Reactions were quenched with 5 μL of 2 N sodium hydroxide (Sigma-Aldrich). Each reaction consisted of 3.75 ng purified βG, 50 μM compound, and 5 mM pNPG in PBS containing 10% DMSO and 0.05% BSA (Sigma-Aldrich). βG-activities were measured by color development of pNP detected on a microplate reader at OD 405 nm. […] For IC50 determination, compounds at various concentrations (100 μM to 0.001 μM) were added.
Supplementary file 740815.f1.pdf: Fifty-nine candidate compounds were acquired from the initial virtually screening which was designed to target the bacterial loop of eβG and its active site. The docking energy scores of 59 candidate compounds measured by the DOCK program are -43 to -55 kcal/mol. (Table S1) The candidate compounds were purchased from SPECS (Zoetermeer, The Netherlands). Each candidate was rovided as a solid power and dissolved in 100% DMSO (Sigma-Aldrich, MO, USA) to 10 mM as stock. Candidates were screening for their inhibition specificity of eβG verse hβG, which were conducted at pH 7.3 or pH 5.4 in triplicate, respectively. 40 µL purified βG was treated with 10 µL compound solution at 37 °C for 30 min, and sequentially incubated with 50 µL of pNPG (Sigma-Aldrich) at 37 °C for 30 min. Reactions were quenched with 5 µL of 2 N sodium hydroxide (Sigma-Aldrich). Each reaction consisted of 3.75 ng purified βG, 50 µM compound, and 5 mM pNPG in PBS containing 10% DMSO and 0.05% BSA (Sigma-Aldrich). βG-activities were measured by color development of pNP detected on a microplate reader at OD 405 nm. […] Especially, the inhibiting ability against eβG activity was >95% in 7 candidates of eβG specific inhibitors (Table S1).
(§2) Fifty-nine candidate compounds were acquired from the initial virtually screening which was designed to target the bacterial loop of eβG and its active site. The docking energy scores of 59 candidate compounds measured by the DOCK program are -43 to -55 kcal/mol. (Table S1) The candidate compounds were purchased from SPECS (Zoetermeer, The Netherlands). Each candidate was provided as a solid power and dissolved in 100% DMSO (Sigma-Aldrich, MO, USA) to 10 mM as stock. Candidates were screening for their inhibition specificity of eβG verse hβG, which were conducted at pH 7.3 or pH 5.4 in triplicate, respectively. 40 μL purified βG was treated with 10 μL compound solution at 37 °C for 30 min, and sequentially incubated with 50 μL of pNPG (Sigma-Aldrich) at 37 °C for 30 min. Reactions were quenched with 5 μL of 2 N sodium hydroxide (Sigma-Aldrich). Each reaction consisted of 3.75 ng purified βG, 50 μM compound, and 5 mM pNPG in PBS containing 10% DMSO and 0.05% BSA (Sigma-Aldrich). βG-activities were measured by color development of pNP detected on a microplate reader at OD 405 nm. […]
percent of βG activity compared with the untreated control.
Especially, the inhibiting ability against eβG activity was >95% in 7 candidates of eβG specific inhibitors (Table S1).
Table S1. […]

human βG (hβG) = molecular target: T2, human βG (hβG) (Homo sapiens, UniProt P08236); assay: In vitro βG-activity assay (pNPG hydrolysis), hβG; format: biochemical; details: pH 5.4, percent of activity vs untreated control
T2 construct: histidine tag (N); made in house; host or cells: E. coli BL21 (DE3)
T2 sequence (P08236 23-651): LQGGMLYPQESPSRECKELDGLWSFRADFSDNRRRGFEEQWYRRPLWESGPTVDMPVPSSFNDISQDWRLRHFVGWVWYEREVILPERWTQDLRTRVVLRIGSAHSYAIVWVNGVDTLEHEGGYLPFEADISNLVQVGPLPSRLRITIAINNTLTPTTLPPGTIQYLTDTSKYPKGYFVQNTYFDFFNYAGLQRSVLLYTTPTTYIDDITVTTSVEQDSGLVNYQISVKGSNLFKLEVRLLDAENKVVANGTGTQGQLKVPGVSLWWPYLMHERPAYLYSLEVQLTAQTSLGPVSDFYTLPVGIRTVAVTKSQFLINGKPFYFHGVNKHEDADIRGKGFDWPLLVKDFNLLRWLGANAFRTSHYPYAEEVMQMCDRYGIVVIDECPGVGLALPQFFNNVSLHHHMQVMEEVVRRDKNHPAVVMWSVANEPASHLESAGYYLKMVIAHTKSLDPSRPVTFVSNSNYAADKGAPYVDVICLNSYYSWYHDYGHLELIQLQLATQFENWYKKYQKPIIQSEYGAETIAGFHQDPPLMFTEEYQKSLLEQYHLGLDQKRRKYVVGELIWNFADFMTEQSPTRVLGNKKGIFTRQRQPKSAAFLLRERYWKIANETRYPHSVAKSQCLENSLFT
Description: as §1
The candidate compounds were purchased from SPECS (The Netherlands). Each candidate was provided as a solid power and dissolved in 100% DMSO (Sigma-Aldrich) to 10 mM as stock. Candidates were screened for their inhibition specificity of eβG versus hβG, which were conducted at pH 7.3 or pH 5.4, in triplicate, respectively. 40 μL purified βG was treated with 10 μL compound solution at 37°C for 30 min and sequentially incubated with 50 μL of pNPG (Sigma-Aldrich) at 37°C for 30 min. Reactions were quenched with 5 μL of 2 N sodium hydroxide (Sigma-Aldrich). Each reaction consisted of 3.75 ng purified βG, 50 μM compound, and 5 mM pNPG in PBS containing 10% DMSO and 0.05% BSA (Sigma-Aldrich). βG-activities were measured by color development of pNP detected on a microplate reader at OD 405 nm.
as §2, with “(Table” for “Fifty-nine candidate compounds were acquired from the initial virtually screening which was designed to target the bacterial loop of eβG and its active site. The docking energy scores of 59 candidate compounds measured by the DOCK program are -43 to -55 kcal/mol. (Table”, “rovided” for “provided”, “µL” for “μL”, “µM” for “μM”
candidate compounds were purchased from SPECS (Zoetermeer, The Netherlands). Each candidate was provided as a solid power and dissolved in 100% DMSO (Sigma-Aldrich, MO, USA) to 10 mM as stock. Candidates were screening for their inhibition specificity of eβG verse hβG, which were conducted at pH 7.3 or pH 5.4 in triplicate, respectively. 40 μL purified βG was treated with 10 μL compound solution at 37 °C for 30 min, and sequentially incubated with 50 μL of pNPG (Sigma-Aldrich) at 37 °C for 30 min. Reactions were quenched with 5 μL of 2 N sodium hydroxide (Sigma-Aldrich). Each reaction consisted of 3.75 ng purified βG, 50 μM compound, and 5 mM pNPG in PBS containing 10% DMSO and 0.05% BSA (Sigma-Aldrich). βG-activities were measured by color development of pNP detected on a microplate reader at OD 405 nm.

SMILES | eβG activity (%) with 50 μM compound [1] [%] | hβG activity (%) with 50 μM compound (human βG (hβG)) [%]
Cc1cc(NS(=O)(=O)c2ccc(NC(=O)c3cc(Cl)ccc3[N+](=O)[O-])cc2)nc(C)n1 [Compound 5003] | 17.02 | 105.54
N/C(=N\c1nc2c(c(=O)[nH]1)CCC2)Nc1ccccc1 [Compound 5905] | 24.93 | 104.96
O=C1SCCC1NS(=O)(=O)c1cc(Cl)ccc1Cl (stereo not shown) [Compound 3927] | 18.73 | 106.86
Cc1cc(/C=C2\SC(=Nc3ccc(F)cc3)NC2=O)c(C)n1-c1ccc(S(N)(=O)=O)cc1 [Compound 1135] | 3.70 | 118.10
COc1cc(C(=O)N2CCNCC2)cc(OC)c1OC [Compound 6368] | 44.87 | 116.03
COc1cc2ccccc2cc1C(=O)N1CCN(C)CC1 [Compound 0030] | 58.19 | 111.74
CCOC(=O)N1CCC2(CC1)OS(=O)(=O)C=C2N [Compound 0523] | 31.77 | 109.26
N=c1c2sc3nc4ccccc4n3c2ncn1N [Compound 6015] | 10.40 | 72.07
CS(=O)(=O)CCC(C(=O)O)N1C(=O)c2ccccc2C1=O (stereo not shown) [Compound 9063] | 32.48 | 105.45
N#Cc1cc2[nH]c(=O)c(=O)[nH]c2cc1[N+](=O)[O-] [Compound 5012] | 14.96 | 108.51
O=[N+]([O-])C12CNCC([N+](=O)[O-])(CNC1)C2 [Compound 8013b] | 32.91 | 93.72
NC(N)=Nc1nc2ccc(Br)cc2c(=O)[nH]1 [Compound 2020] | 13.68 | 84.13
N=C1C(c2nc3ccccc3c(=O)[nH]2)=C(O)CN1c1cccc(Cl)c1 [Compound 7036] | 6.70 | 95.45
O=C(O)C1CCCCC1C(=O)Nc1ccc(Oc2ccc(Cl)cc2)cc1 (stereo not shown) [Compound 1013] | 34.76 | 126.45
O=C(O)C1CC=CCC1C(=O)Nc1ccc(Br)c2cccnc12 (stereo not shown) [Compound 5244] | 26.21 | 44.38
CC(=O)Nc1ccc(S(=O)(=O)Oc2ccc([N+](=O)[O-])cc2)cc1 [Compound 7100] | 20.58 | 112.56
CCc1sc(NC(=O)C2CCCCC2C(=O)O)nc1-c1ccccc1 (stereo not shown) [Compound 1501] | 27.85 | 105.12
